Measured values taken from US20120100204A1, “TGF-Beta Stimulating Agent Compositions and Combinations” (TCP INNOVATIONS LTD, priority 2007, published 2012).

How the values were obtained:
tgfb1 mRNA = tgfb1 mRNA level by quantitative PCR in human aortic vascular smooth muscle cells; format: cell-based; settings: 24 hrs
Procedure: (1995) Cardiovasc. Res. 29:848-55). […] The cells were then incubated for either 24 hrs or 72 hrs depending on the experiment. All treatment conditions were established in triplicate. The level of mRNA for tgfb1, tgfb2 and tgfb3 were estimated by quantitative PCR. The media was removed and RNA was carefully prepared using the Ambion RNAqueous4PCR kit (Ambion#1914) in accordance with the manufacturer's instructions. The purity of the RNA and the quantity was assessed spectrophotometrically. […] This analysis results in both a gel-like image as well as electrophoretic data. Indications of RNA degradation are: (a) decreasing ratio of ribosomal bands (b) additional peaks bellow the ribosomal bands (c) Decrease in overall RNA signal (d) shift towards shorter fragments. All the mRNA samples used in the experiments presented here passed this RNA quality control step. Next, the RNA was converted to cDNA using the ABI High-Capacity cDNA Archive Kit, in accordance with manufacturer's instructions. […] Samples were vortexed to ensure thorough mixing. cDNA was aliquoted into ABI 384 well plates using a multi-channel pipette, 4.5 μl of sample into each well. Samples were assayed in triplicate (that is, nine determinations in total were made for each condition, being three separate assays on each of three replicate culture wells). The assay mix and Universal Master Mix were prepared and aliquoted across the 384 well plates 5.5 μl in each well, using a single channel pipette. The final composition of each reaction (10 μl) being: […] Universal Master Mix=5 μl; cDNA=4.5 μl. The plates were then heat sealed using Abgene clear seal strong plastic heat seals, and then cycled and scanned using the ABI 9700HT under the following conditions: 95° C. for 10 minutes to activate the AmpliTaq GOLD, then 40 cycles of: 95° C. for 15 sec (Denaturation), 60° C. for 60 […]). […] Quantitative PCR was performed using several primer/probe sets. […] We used both commercially available primer/probe sets (ABI Taqman pre-validated assays), using both available sets in the ABI database for tgfb1 and tgfb2, as well as the single available set for tgfb3. In addition, we used our own manual design probe/primer set for each of tgfb1, tgfb2 and tgfb3. For normalisation, we used TATA-binding protein (TBP) as the primary normalisation standard, with GAPDH as an alternative for confirmation, using ABI Taqman pre-validated probe/primer sets. […] Neither TBP nor GAPDH mRNA levels are affected by TGF-beta and are therefore equally suitable, however TBP was selected as the primary normalisation standard because the absolute level of mRNA in most cell types is similar to that of the TGF-beta isoforms, resulting in lower errors on calculating the ratio, and improving the power of the experiment. In all quantitative PCR experiments, several additional controls were included: firstly, a control for each sample is run with no reverse transcription to ensure the mRNA sample is not contaminated with genomic DNA (although the manual design probe/primer sets were all selected to cross an exon/exon boundary, ensuring no detectable amplicon is produced from genomic DNA templates). […] This control ensures that the results for the unknown samples are obtained in the linear range of the amplification process, and are therefore truly quantitative. Failure of either control led to the repeat of the entire experiment. Typically, the half maximal signal was obtained after 20-30 amplification cycles. […]

tgfb2 mRNA = tgfb2 mRNA level by quantitative PCR in human aortic vascular smooth muscle cells; format: cell-based; settings: 24 hrs
Procedure: (1995) Cardiovasc. Res. 29:848-55). […] The cells were then incubated for either 24 hrs or 72 hrs depending on the experiment. All treatment conditions were established in triplicate. The level of mRNA for tgfb1, tgfb2 and tgfb3 were estimated by quantitative PCR. The media was removed and RNA was carefully prepared using the Ambion RNAqueous4PCR kit (Ambion#1914) in accordance with the manufacturer's instructions. The purity of the RNA and the quantity was assessed spectrophotometrically. […] This analysis results in both a gel-like image as well as electrophoretic data. Indications of RNA degradation are: (a) decreasing ratio of ribosomal bands (b) additional peaks bellow the ribosomal bands (c) Decrease in overall RNA signal (d) shift towards shorter fragments. […] Next, the RNA was converted to cDNA using the ABI High-Capacity cDNA Archive Kit, in accordance with manufacturer's instructions. […] Samples were vortexed to ensure thorough mixing. cDNA was aliquoted into ABI 384 well plates using a multi-channel pipette, 4.5 μl of sample into each well. Samples were assayed in triplicate (that is, nine determinations in total were made for each condition, being three separate assays on each of three replicate culture wells). The assay mix and Universal Master Mix were prepared and aliquoted across the 384 well plates 5.5 μl in each well, using a single channel pipette. […] Universal Master Mix=5 μl; cDNA=4.5 μl. […] Quantitative PCR was performed using several primer/probe sets. […] In all quantitative PCR experiments, several additional controls were included: firstly, a control for each sample is run with no reverse transcription to ensure the mRNA sample is not contaminated with genomic DNA (although the manual design probe/primer sets were all selected to cross an exon/exon boundary, ensuring no detectable amplicon is produced from genomic DNA templates). […]

TGF-beta1 protein = assay: total TGF-beta1 protein in conditioned medium, Quantikine ELISA; format: cell-based, human; settings: 24 hrs or 72 hrs; any dose tested (Tamoxifen up to 33 μM, aspirin up to 100 μM)
Procedure: The cells were cultured (37° C.; 5% CO2) in DMEM+20% foetal calf serum (FCS), and subcultured every 5 days at 1:2 dilution, using 0.02% trypsin/EDTA (Gibco).
For the experiments, the cells were subcultured into 12-well cluster plates at 1×10^5 cells/cm^2, and allowed to grow for 24 hrs. […] The cells were then incubated for either 24 hrs or 72 hrs depending on the experiment. All treatment conditions were established in triplicate.
TGF-beta1 protein levels in the medium was measured using the Quantikine ELISA kit (R&D Systems) in accordance with the manufacturer's instructions, except that the medium was pre-activated by addition of an equal volume of 2.7M HCl 10M Urea, and then neutralised by addition of the same volume of 1M HEPES 2M NaOH. […] Note that TGF-beta proteins are well known to interact with many different matrix proteins and cell surface proteins, including proteoglycans, low affinity type III receptors, fibronectin and collagen, and consequently the amount of TGF-beta protein in the medium may not represent the total amount synthesised by the cells, and a negative result in the assay for TGF-beta protein may represent a false negative.

| Compound | Level of mRNA, estimated by qPCR: tgfb1 (tgfb1 mRNA; 10 μM A) | Level of mRNA, estimated by qPCR: tgfb1 (tgfb1 mRNA; 33 μM A) | Level of mRNA, estimated by qPCR: tgfb1 (tgfb1 mRNA; 100 μM A) | effect on the mRNA levels of any of the three isoforms of TGF-beta (tgfb1 mRNA; any concentration tested (up to 100 μM)) | Level of mRNA, estimated by qPCR: tgfb2 (tgfb2 mRNA; 10 μM A) | Level of mRNA, estimated by qPCR: tgfb2 (tgfb2 mRNA; 33 μM A) | Level of mRNA, estimated by qPCR: tgfb2 (tgfb2 mRNA; 100 μM A) | effect on total TGF-beta1 protein levels in conditioned medium (TGF-beta1 protein) | Level of mRNA, estimated by qPCR: tgfb1 (tgfb1 mRNA; 3.3 μM T, normalised to TBP, vs vehicle) | Level of mRNA, estimated by qPCR: tgfb1 (tgfb1 mRNA; 10 μM T) | Level of mRNA, estimated by qPCR: tgfb1 (tgfb1 mRNA; 33 μM T, listed as T) | Level of mRNA, estimated by qPCR: tgfb1 (tgfb1 mRNA; 33 μM T, listed as TMX) | doses that significantly increased tgfb1 mRNA (tgfb1 mRNA) |
| --- | --- | --- | --- | --- | --- | --- | --- | --- | --- | --- | --- | --- | --- |
| CC(=O)Oc1ccccc1C(=O)O [Aspirin, acetylsalicylic acid] | 1.01 ± 0.04 fold-change | 0.93 ± 0.11 fold-change | 1.06 ± 0.08 fold-change | no statistically significant effect | 0.92 ± 0.10 fold-change | 1.00 ± 0.17 fold-change | 1.03 ± 0.16 fold-change | no statistically significant effect | – | – | – | – | – |
| CC/C(=C(\c1ccccc1)c1ccc(OCCN(C)C)cc1)c1ccccc1 [Tamoxifen] | – | – | – | – | – | – | – | no statistically significant effect | 0.95 ± 0.16 fold-change | 1.27 ± 0.09 fold-change | 1.41 ± 0.08 fold-change | approximately 1.4 fold-change | ≥ 10 µM |
